# In ChEMBL document CHEMBL1148023, “Synthesis and antibacterial activity of derivatives of 6-O-allylic acylides” (2007):
# Key:
# Assay type in all cases: functional
# Streptococcus pneumoniae [1] = experiment: Antibacterial activity against erythromycin-resistant Streptococcus pneumoniae 03-451 by broth microdilution method
# Streptococcus pyogenes [2] = experiment: Antibacterial activity against erythromycin-resistant Streptococcus pyogenes 03-680 by broth microdilution method
# Staphylococcus aureus [3] = experiment: Antibacterial activity against methicillin-sensitive Staphylococcus aureus 01-431 by broth microdilution method
# Streptococcus pneumoniae [4] = experiment: Antibacterial activity against Streptococcus pneumoniae ATCC 49619 by broth microdilution method
# [5] = test system: Staphylococcus epidermidis; experiment: Antibacterial activity against methicillin-resistant Staphylococcus epidermidis 01-1090 by broth microdilution method
# Staphylococcus aureus [6] = experiment: Antibacterial activity against methicillin-sensitive Staphylococcus aureus 01-481 by broth microdilution method
# Streptococcus pyogenes [7] = experiment: Antibacterial activity against erythromycin-susceptible Streptococcus pyogenes 01-469 by broth microdilution method
# [8] = test system: Staphylococcus epidermidis; experiment: Antibacterial activity against methicillin-resistant Staphylococcus epidermidis 01-1059 by broth microdilution method
# Streptococcus pyogenes [9] = experiment: Antibacterial activity against erythromycin-susceptible Streptococcus pyogenes 01-804 by broth microdilution method
# Staphylococcus aureus [10] = experiment: Antibacterial activity against methicillin-resistant Staphylococcus aureus 01-483 by broth microdilution method
# Staphylococcus aureus [11] = experiment: Antibacterial activity against methicillin-resistant Staphylococcus aureus 01-429 by broth microdilution method
# Streptococcus pyogenes [12] = experiment: Antibacterial activity against erythromycin-susceptible Streptococcus pyogenes 01-740 by broth microdilution method
# [13] = test system: Staphylococcus epidermidis; experiment: Antibacterial activity against methicillin-sensitive Staphylococcus epidermidis 01-1004 by broth microdilution method
# [14] = test system: Staphylococcus epidermidis; experiment: Antibacterial activity against methicillin-resistant Staphylococcus epidermidis 01-1056 by broth microdilution method
# [15] = test system: Staphylococcus epidermidis; experiment: Antibacterial activity against methicillin-sensitive Staphylococcus epidermidis 01-1091 by broth microdilution method
# Streptococcus pneumoniae [16] = experiment: Antibacterial activity against erythromycin-resistant Streptococcus pneumoniae 03-436 by broth microdilution method
# [17] = test system: Staphylococcus epidermidis; experiment: Antibacterial activity against methicillin-sensitive Staphylococcus epidermidis 01-1005 by broth microdilution method
# Staphylococcus aureus [18] = experiment: Antibacterial activity against methicillin-resistant Staphylococcus aureus 01-433 by broth microdilution method
# Staphylococcus aureus [19] = experiment: Antibacterial activity against methicillin-sensitive Staphylococcus aureus 01-430 by broth microdilution method
# Streptococcus pneumoniae [20] = experiment: Antibacterial activity against erythromycin-resistant Streptococcus pneumoniae 03-458 by broth microdilution method
Structure (SMILES),MIC (Streptococcus pneumoniae [1]) [mg/L],MIC (Streptococcus pyogenes [2]) [mg/L],MIC (Staphylococcus aureus [3]) [mg/L],MIC (Streptococcus pneumoniae [4]) [mg/L],MIC [5] [mg/L],MIC (Staphylococcus aureus [6]) [mg/L],MIC (Streptococcus pyogenes [7]) [mg/L],MIC [8] [mg/L],MIC (Streptococcus pyogenes [9]) [mg/L],MIC (Staphylococcus aureus [10]) [mg/L],MIC (Staphylococcus aureus [11]) [mg/L],MIC (Streptococcus pyogenes [12]) [mg/L],MIC [13] [mg/L],MIC [14] [mg/L],MIC [15] [mg/L],MIC (Streptococcus pneumoniae [16]) [mg/L],MIC [17] [mg/L],MIC (Staphylococcus aureus [18]) [mg/L],MIC (Staphylococcus aureus [19]) [mg/L],MIC (Streptococcus pneumoniae [20]) [mg/L]
C=CCO[C@@H]1C[C@@H](C)C(=O)[C@H](C)[C@H]2OC(=O)O[C@]2(C)[C@@H](CC)OC(=O)[C@H](C)[C@@H](OC(=O)Cc2cccc(F)c2)[C@H](C)[C@H]1O[C@@H]1O[C@H](C)C[C@H](N(C)C)[C@H]1O,4,16,1,0.125,1,2,0.125,2,0.125,2,16,0.125,1,32,1,8,1,16,1,2
C=CCO[C@@H]1C[C@@H](C)C(=O)[C@H](C)[C@H]2OC(=O)O[C@]2(C)[C@@H](CC)OC(=O)[C@H](C)[C@@H](OC(=O)Cc2ccc(Cl)cc2)[C@H](C)[C@H]1OC1O[C@H](C)C[C@H](N(C)C)[C@H]1O (stereo not given in full),8,8,4,1,16,8,0.5,16,0.5,16,16,0.25,2,32,2,16,2,16,4,8
C=CCO[C@@H]1C[C@@H](C)C(=O)[C@H](C)[C@H]2OC(=O)O[C@]2(C)[C@@H](CC)OC(=O)[C@H](C)[C@@H](OC(=O)Cc2ccc3c(c2)OCO3)[C@H](C)[C@H]1O[C@@H]1O[C@H](C)C[C@H](N(C)C)[C@H]1O,4,16,0.5,0.062,1,1,0.016,1,0.031,1,32,0.016,0.5,32,0.5,8,0.5,32,0.5,2
C=CCO[C@@H]1C[C@@H](C)C(=O)[C@H](C)[C@H]2OC(=O)O[C@]2(C)[C@@H](CC)OC(=O)[C@H](C)[C@@H](OC(=O)CCc2c[nH]c3ccccc23)[C@H](C)[C@H]1O[C@@H]1O[C@H](C)C[C@H](N(C)C)[C@H]1O,32,32,32,4,32,32,1,32,1,32,32,1,32,32,32,32,32,32,32,32
CC[C@H]1OC(=O)[C@H](C)[C@@H](O[C@H]2C[C@@](C)(OC)[C@@H](O)[C@H](C)O2)[C@H](C)[C@@H](O[C@@H]2O[C@H](C)C[C@H](N(C)C)[C@H]2O)[C@](C)(OC)C[C@@H](C)C(=O)[C@H](C)[C@@H](O)[C@]1(C)O [CLARITHROMYCIN],32,256,0.25,0.25,256,0.5,0.062,256,0.125,256,256,0.062,0.125,256,0.125,128,0.125,256,0.25,256
C=CCO[C@@H]1C[C@@H](C)C(=O)[C@H](C)[C@H]2OC(=O)O[C@]2(C)[C@@H](CC)OC(=O)[C@H](C)[C@@H](OC(=O)Cc2c[nH]c3ccccc23)[C@H](C)C1O[C@@H]1O[C@H](C)C[C@H](N(C)C)[C@H]1O (stereo not given in full),16,16,8,2,32,16,0.5,32,0.5,16,16,0.5,4,32,4,32,4,16,8,32
C=CCO[C@@H]1C[C@@H](C)C(=O)[C@H](C)[C@H]2OC(=O)O[C@]2(C)[C@@H](CC)OC(=O)[C@H](C)[C@@H](OC(=O)Cc2ccccc2Cl)[C@H](C)[C@H]1OC1O[C@H](C)C[C@H](N(C)C)[C@H]1O (stereo not given in full),4,16,1,0.25,4,4,0.062,8,0.125,4,16,0.062,1,32,1,8,1,16,1,2
C=CCO[C@@H]1C[C@@H](C)C(=O)[C@H](C)[C@H]2OC(=O)O[C@]2(C)[C@@H](CC)OC(=O)[C@H](C)[C@@H](OC(=O)Cc2cccnc2)[C@H](C)[C@H]1O[C@@H]1O[C@H](C)C[C@H](N(C)C)[C@H]1O,2,16,1,0.25,2,2,0.125,32,0.125,8,32,0.125,0.5,32,0.5,2,0.5,32,1,2
C=CCO[C@@H]1C[C@@H](C)C(=O)[C@H](C)[C@H]2OC(=O)O[C@]2(C)[C@@H](CC)OC(=O)[C@H](C)[C@@H](OC(=O)COc2ccccc2)[C@H](C)[C@H]1OC1O[C@H](C)C[C@H](N(C)C)[C@H]1O (stereo not given in full),16,16,16,2,32,32,0.5,32,1,32,32,0.5,8,32,8,32,8,32,16,16
